In publication PMC5986547 (Heliyon, 2018):
Read-outs that look alike come from different tables or passages of the source.

Legend:
hNET [1] = target: T1, hNET (Homo sapiens, UniProt P23975); assay: Reuptake inhibition assay, [3H]NE, plated hNET-HEK293 cells; format: cell-based
hNET [2] = target: T1, hNET; format: cell-based
rNET [3] = target: T2, rNET (Rattus norvegicus, UniProt Q63380); format: biochemical; settings: read-out: IC50, rNET, synaptosomes (in parentheses, converted from Ki)
rNET [4] = target: T2, rNET; settings: read-out: Ki, reuptake inhibition, rNET, synaptosomes; cited from earlier work
hNET [5] = target: T1, hNET; settings: read-out: IC50, reuptake inhibition, hNET-HEK293 cells; mean ± S.E.M.; cell suspensions; cited from earlier work
SK-N-BE(2)C cells = assay: Uptake kinetics of [3H]NE by adherent SK-N-BE; format: cell-based, human; settings: RT, 24-well plates, 163 μg of protein/well, mean ± S.E.M., N = 3

T1 sequence (P23975 whole entry): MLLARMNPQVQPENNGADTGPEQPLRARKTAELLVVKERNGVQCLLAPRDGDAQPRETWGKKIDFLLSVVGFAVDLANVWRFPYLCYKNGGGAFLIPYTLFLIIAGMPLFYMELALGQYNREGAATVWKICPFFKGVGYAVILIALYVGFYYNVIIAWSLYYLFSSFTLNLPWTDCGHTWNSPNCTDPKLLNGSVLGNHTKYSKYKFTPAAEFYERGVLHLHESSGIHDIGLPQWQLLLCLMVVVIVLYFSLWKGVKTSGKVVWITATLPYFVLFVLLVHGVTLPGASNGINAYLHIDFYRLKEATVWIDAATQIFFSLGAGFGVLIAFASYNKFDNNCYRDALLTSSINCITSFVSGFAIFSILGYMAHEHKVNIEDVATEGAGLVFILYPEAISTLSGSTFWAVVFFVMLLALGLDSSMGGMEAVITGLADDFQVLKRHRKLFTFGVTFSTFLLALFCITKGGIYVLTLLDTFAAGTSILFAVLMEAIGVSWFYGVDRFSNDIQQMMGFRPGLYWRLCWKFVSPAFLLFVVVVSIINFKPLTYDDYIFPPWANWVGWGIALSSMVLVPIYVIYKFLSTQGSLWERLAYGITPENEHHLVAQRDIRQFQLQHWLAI
T2 sequence (Q63380 1-617): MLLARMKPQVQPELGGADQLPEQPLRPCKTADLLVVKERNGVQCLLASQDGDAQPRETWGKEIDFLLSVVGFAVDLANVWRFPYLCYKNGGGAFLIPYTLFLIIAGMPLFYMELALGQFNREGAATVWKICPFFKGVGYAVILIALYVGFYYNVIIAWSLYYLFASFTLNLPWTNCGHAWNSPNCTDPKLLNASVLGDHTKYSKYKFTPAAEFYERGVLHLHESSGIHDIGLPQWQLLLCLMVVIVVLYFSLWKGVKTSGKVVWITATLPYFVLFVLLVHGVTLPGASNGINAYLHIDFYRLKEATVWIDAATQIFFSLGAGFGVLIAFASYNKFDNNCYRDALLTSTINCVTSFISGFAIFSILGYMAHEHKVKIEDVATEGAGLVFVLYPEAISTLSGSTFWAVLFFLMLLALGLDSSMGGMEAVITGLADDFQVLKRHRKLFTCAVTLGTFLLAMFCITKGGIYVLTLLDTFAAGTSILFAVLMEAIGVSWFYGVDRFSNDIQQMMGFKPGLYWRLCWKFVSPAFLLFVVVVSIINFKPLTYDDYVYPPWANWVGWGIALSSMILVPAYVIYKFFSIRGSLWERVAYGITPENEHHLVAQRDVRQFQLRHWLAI

Fc1ccc(C(OCCN2CCN(CCCc3ccccc3)CC2)c2ccc(F)cc2)cc1 [GBR12909]
activity in hNET-HEK293 cells, in words (hNET [1]): inactive

c1ccc(CCCN2CCN(CCOC(c3ccccc3)c3ccccc3)CC2)cc1 [GBR12935]
fold less potent in SK-N-BE(2)C cells than in hNET-HEK293 cells (hNET [2]): 14.8 fold | fold less potent in SK-N-BE(2)C cells than in rat brain synaptosomes (hNET [2]): 11.6 fold | IC50 (hNET [2]; read-out: IC50, reuptake inhibition, hNET, SK-N-BE(2)C cells): 3470 ± 150 nM | IC50 (rNET [3]): 299 nM | Ki (rNET [4]): 277 nM | IC50 (hNET [5]): 235 ± 53 nM

COC(=O)[C@H]1C(c2ccc(I)cc2)C[C@@H]2CC[C@H]1N2C (stereo partly shown) [RTI-55]
fold less potent in SK-N-BE(2)C cells than in rat brain synaptosomes (hNET [2]; ratio of IC50 values): 6 fold | fold less potent in SK-N-BE(2)C cells than in hNET-HEK293 cells (hNET [2]; ratio of IC50 values, hNET-HEK293 data of ref 8): 14.4 fold | IC50 (hNET [5]): 2.63 ± 0.76 nM

CN1[C@H]2CC[C@@H]1[C@@H](C(=O)N1CCCC1)[C@@H](c1ccc(I)cc1)C2 [RTI-229]
fold less potent in SK-N-BE(2)C cells than in rat brain synaptosomes (hNET [2]; ratio of IC50 values): 38 fold

[3H][C@](O)(CN)c1ccc(O)c(O)c1 [[^3H]NE, [^3H]norepinephrine]
VMAX of [3H]NE uptake (SK-N-BE(2)C cells): 195 ± 13 fmol radioactivity/mg protein/min

NC[C@H](O)c1ccc(O)c(O)c1 [[^3H]NE, [^3H]norepinephrine]
Km (SK-N-BE(2)C cells; read-out: KM of [3H]NE uptake): 0.416 µM
